Experiment: xn = mol fraction of the nth substance listed
Details: 101 kPa, Liquid

CC(C)=O [acetone] + CCOS(=O)(=O)[O-].CCn1cc[n+](C)c1
x1 = 1
Details	mass density [kg/m3]
278.15 K	807.75
283.15 K	802.15
288.15 K	796.52
293.15 K	790.86
298.15 K	785.13
303.15 K	779.38
308.15 K	773.58

CC#N [acetonitrile] + CCOS(=O)(=O)[O-].CCn1cc[n+](C)c1
x1 = 1
Details	mass density [kg/m3]
278.15 K	798.01
283.15 K	792.69
288.15 K	787.33
293.15 K	781.97
298.15 K	776.56
303.15 K	771.14
308.15 K	765.68

CC1COC(=O)O1 (stereo unspecified) [4-methyl-1,3-dioxolan-2-one] + CCOS(=O)(=O)[O-].CCn1cc[n+](C)c1
mass density [kg/m3]
Details	278.15 K	283.15 K	288.15 K	293.15 K	298.15 K	303.15 K	308.15 K
x1 = 0.0266	1250.69	1247.12	1243.68	1240.27	1236.86	1233.45	1230.06
x1 = 0.0513	1250.41	1246.82	1243.39	1239.97	1236.53	1233.11	1229.69
x1 = 0.0755	1250.13	1246.55	1243.1	1239.64	1236.19	1232.74	1229.3
x1 = 0.1231	1249.6	1246.04	1242.54	1239.04	1235.55	1232.06	1228.58
x1 = 0.1825	1248.89	1245.35	1241.79	1238.2	1234.68	1231.13	1227.6
x1 = 0.2548	1248.05	1244.41	1240.76	1237.11	1233.49	1229.88	1226.27
x1 = 0.3178	1247.17	1243.45	1239.73	1236.01	1232.32	1228.64	1224.96
x1 = 0.3778	1246.4	1242.61	1238.81	1235.04	1231.27	1227.52	1223.78
x1 = 0.4859	1244.38	1240.42	1236.47	1232.54	1228.62	1224.71	1220.83
x1 = 0.5725	1242.6	1238.5	1234.4	1230.34	1226.28	1222.25	1218.22
x1 = 0.6971	1239.08	1234.73	1230.4	1226.09	1221.79	1217.52	1213.25
x1 = 0.7812	1235.9	1231.35	1226.82	1222.31	1217.81	1213.33	1208.86
x1 = 0.8427	1232.95	1228.23	1223.51	1218.83	1214.15	1209.49	1204.84
x1 = 0.8893	1230.36	1225.48	1220.62	1215.78	1210.95	1206.14	1201.34
x1 = 0.9259	1227.81	1222.79	1217.79	1212.81	1207.84	1202.89	1197.94
x1 = 0.9554	1225.35	1220.2	1215.07	1209.96	1204.85	1199.76	1194.68
x1 = 0.9797	1223.22	1217.97	1212.73	1207.51	1202.3	1197.09	1191.9
x1 = 1	1220.93	1215.57	1210.21	1204.88	1199.55	1194.23	1188.91

CCOS(=O)(=O)[O-].CCn1cc[n+](C)c1 [1-ethyl-3-methylimidazolium ethyl sulfate] + CC1COC(=O)O1
x2 = 0
Details	mass density [kg/m3]
278.15 K	1251.04
283.15 K	1247.5
288.15 K	1244.04
293.15 K	1240.66
298.15 K	1237.27
303.15 K	1233.89
308.15 K	1230.51

CCOS(=O)(=O)[O-].CCn1cc[n+](C)c1 [1-ethyl-3-methylimidazolium ethyl sulfate] + CCO
mass density [kg/m3]
Details	278.15 K	283.15 K	288.15 K	293.15 K	298.15 K	303.15 K	308.15 K
x2 = 0	1251.4	1247.84	1244.39	1241.01	1237.63	1234.24	1230.87
x2 = 0.016	1249.64	1246.08	1242.65	1239.25	1235.85	1232.45	1229.05
x2 = 0.0254	1248.22	1244.65	1241.24	1237.84	1234.43	1231.03	1227.63
x2 = 0.0425	1246.12	1242.58	1239.16	1235.76	1232.34	1228.94	1225.53
x2 = 0.0877	1240.95	1237.47	1234.04	1230.59	1227.18	1223.75	1220.34
x2 = 0.1178	1235.48	1232.05	1228.59	1225.14	1221.7	1218.26	1214.84
x2 = 0.142	1231.31	1227.85	1224.38	1220.92	1217.47	1214.02	1210.59
x2 = 0.2344	1216.31	1212.79	1209.28	1205.78	1202.3	1198.83	1195.36
x2 = 0.4236	1174.57	1170.96	1167.36	1163.79	1160.21	1156.65	1153.1
x2 = 0.6005	1116.78	1113.06	1109.36	1105.67	1101.99	1098.32	1094.66
x2 = 0.7305	1055.36	1051.54	1047.72	1043.92	1040.12	1036.36	1032.55
x2 = 0.833	987.08	983.14	979.21	975.3	971.37	967.46	963.54
x2 = 0.9022	925.53	921.55	917.81	913.45	910.22	906.22	902.18
x2 = 0.9567	863.73	860.74	856.8	851.32	848.59	844.44	840.27
x2 = 0.9846	826.39	822.21	818.01	813.81	809.59	805.36	801.09
x2 = 0.9924	814.42	810.28	806.17	801.75	797.8	793.53	789.23
x2 = 0.9963	808.01	803.79	799.55	795.3	791.03	786.74	782.41

From the NIST ThermoML archive (doi:10.1021/je1002237)
